# Laboratory results as given in ChEMBL document CHEMBL4742394, “3-(aryl or heteroaryl) methyleneindolin-2-one derivatives as inhibitors of cancer stem cell pathway kinases for the treatment of cancer” (2019).
# Calls of active or inactive are those of the source. The calls are words filed in the database; no cut-off is given here.
# What was measured:
# Homo sapiens = organism: Homo sapiens; assay: Inhibition of ERK phosphorylation (unknown origin) incubated for 6 hrs by Western blot analysis based cell based assay
# FaDu [1] = assay: Growth inhibition of human FaDu cancer stem cells incubated for 72 hrs by cell-titer Glo luminescence assay; assay type: functional, cell-based
# [2] = target: Small ribosomal subunit protein eS6 (Homo sapiens) (UniProt P62753); assay: Inhibition of RPS6 phosphorylation in human HeLa cells assessed as Ser235/236 phosphorylation level at 5 uM incubated for 6 hrs; assay type: cell-based; design: scale not given: the % may be the effect or the level left
# [3] = target: Small ribosomal subunit protein eS6 (Homo sapiens) (UniProt P62753); assay: Inhibition of RPS6 phosphorylation in human HeLa cells assessed as Ser240/244 phosphorylation level at 5 uM incubated for 6 hrs; assay type: cell-based; design: scale not given: the % may be the effect or the level left
# FaDu [4] = assay: Growth inhibition of human FaDu cells incubated for 72 hrs by cell-titer Glo luminescence assay; assay type: functional, cell-based
# [5] = target: Small ribosomal subunit protein eS6 (Homo sapiens) (UniProt P62753); assay: Inhibition of RPS6 phosphorylation (unknown origin) incubated for 6 hrs by Western blot analysis based cell based assay
structure (smiles),measurement,setting,value
COc1cccnc1-c1ccc2c(c1)/C(=C/c1[nH]c(C)cc1C)C(=O)N2,inhibition,Homo sapiens,Active
same,IC50,FaDu [1],2.52 µM
CCOC(=O)CCc1ccc(-c2nc(-c3ccc4c(c3)/C(=C/c3[nH]c(C)c(C(=O)NCCN(CC)CC)c3C)C(=O)N4)cs2)cc1,inhibition,Homo sapiens,Active
CCN(CC)CCNC(=O)c1c(C)[nH]c(/C=C2\C(=O)Nc3ccc(-c4n[nH]c5ccccc45)cc32)c1C,Activity,[2],4%
same,Activity,[3],26%
Cc1cc(C)c(/C=C2\C(=O)Nc3ccc(-c4ccc(C=O)cc4)cc32)[nH]1,inhibition,Homo sapiens,Active
Cc1ccc(-c2nc(-c3ccc4c(c3)/C(=C/c3[nH]c(C)c(C(=O)N5CCN(C)CC5)c3C)C(=O)N4)cs2)cc1,IC50,FaDu [4],23.7 µM
CCNC(=O)c1c(C)[nH]c(/C=C2\C(=O)Nc3ccc(-c4csc(-c5ccccc5)n4)cc32)c1C,inhibition,[5],Active
same,inhibition,Homo sapiens,Active
Cc1cc(C)c(/C=C2\C(=O)Nc3ccc(-c4csc(C5CCNCC5)n4)cc32)[nH]1,Activity,[2],76%
same,Activity,[3],76%
